Tests used:
Daoy = assay: MTS cell viability assay, Daoy; type: cell-based; conditions: cells incubated 72 h
Description: (§1) Cells were plated, the evening before treatment, for each treatment on 96-well plates (1×10^4 cells/well) in 100 μL volume per well. Analog solutions were prepared by diluting each test compound in DSMO (10 mM) with the appropriate cell growth media for each individual cell line, or in “Universal Media” if several cell lines were to be assayed in parallel, immediately prior to cell treatment. Universal Media consisted of 5 mL sodium pyruvate (100× liquid stock, MediaTech), 5 mL glucose (100×, 45% liquid stock, MediaTech), 5 mL Penicillin/Streptomycin (100× liquid stock, MediaTech), 10 mL sodium bicarbonate (50× liquid stock, MediaTech), 25 mL Fetal Calf Serum, 1.25 mL insulin (4 mg/mL, Gibco) and […] RPMI media with 2 mM L-glutamine for a total volume of 500 mL.
(§2) Cells were treated by aspirating plating media from each well and adding 80 μL of betulinic acid (control) or each analog solution in serial dilutions to the adherent cells. All treatments were performed in triplicate. Growth media (80 μL) was added to 3 blank wells (no cells) to measure background from the growth media. Growth media alone (no DMSO or test compound) was added to 3 wells containing cells to measure the baseline MTS activity. Vehicle (DMSO) control in serial dilutions, added to cells, was also included to monitor basal toxicity from DMSO. Cells were incubated at 37° C. for 72 h, or 120 h for the OVCAR cell lines. MTS reagent (per 96-well plate) were prepared by combining 2 mL of MTS working solution (Cell Titer AQueous Non-Radioactive Cell Proliferation Assay, Promega, cat#G1112), 100 μL of 0.92 mg/mL phenazine methosulfate/Dulbecco's PBS and 2.1 mL growth media. MTS reagent (40 μL) were added to each well and incubated at 37° C. for 1.5 to 4 h. Plates were gently shaken by hand until solution in each well appeared homogenous. Absorbances at 490 nm were measured on a Wallac Victor II plate reader at multiple time points following the addition of MTS reagent for each plate. Triplicate absorbance (490 nm) measurements were averaged following background (no cell) subtraction for each drug concentration. Percent Cell Viability was calculated for each drug concentration using the following equation:
(§3) {[Absorbance(analog treated)]/[Absorbance(DMSO treated)]}×100%
(§4) Cytotoxicity dose response for the triterpenoid derivatives synthesized in SK-MEL-2 (melanoma), A-375 (melanoma), Daoy (glioblastoma), LN-229 (glioblastoma), OVCAR-3 (ovarian carcinoma), HT-29 (colon carcinoma), MCF-7 (breast carcinoma) cell lines using the standard MTS assay is summarized in Table 1. In Table 1, compounds 22a-d and compounds 23a-c refer to structures 22 and 23 in Scheme 5, respectively. Compounds 24aa-an and 24ba-bq refer to structure 24 in Scheme 6. Compounds 26a-e refer to structure 26 in Scheme 6. Compounds 36a-c refer to structure 36 in Scheme 10.

SK-MEL-2 (melanoma) = assay: MTS cell viability assay, SK-MEL-2; type: cell-based
Description: as §1, §2, §3, §4

MCF-7 (breast carcinoma) = assay: MTS cell viability assay, MCF-7; type: cell-based
Description: as §1, §2, §3, §4

A-375 (melanoma) = assay: MTS cell viability assay, A-375; type: cell-based
Description: as §1, §2, §3, §4

CEM = assay: MTS cell viability assay, CEM; type: cell-based; conditions: cells incubated 72 h
Description: as §1, §2, §3

[1] = system: OVCAR-3 (ovarian carcinoma); assay: MTS cell viability assay, OVCAR-3; type: cell-based
Description: as §1, §2, §3, §4

LN-229 (glioblastoma) = assay: MTS cell viability assay, LN-229; type: cell-based
Description: as §1, §2, §3, §4

HT-29 (colon carcinoma) = assay: MTS cell viability assay, HT-29; type: cell-based
Description: as §1, §2, §3, §4

H-146 = assay: MTS cell viability assay, H-146; type: cell-based
Description: as §1, §2, §3

[2] = Homo sapiens, SK-MEL-2, cells incubated 72 h
[3] = Homo sapiens, MCF7, cells incubated 72 h
[4] = Homo sapiens, A-375, cells incubated 72 h
[5] = Homo sapiens, OVCAR-3, 120 h for the OVCAR cell lines
[6] = Homo sapiens, LN-229, cells incubated 72 h
[7] = Homo sapiens, HT-29, cells incubated 72 h
[8] = Homo sapiens, NCI-H146, cells incubated 72 h

| SMILES | IC50 (Daoy; Homo sapiens, Daoy) [µM] | IC50 (SK-MEL-2 (melanoma); [2]) [µM] | IC50 (MCF-7 (breast carcinoma); [3]) [µM] | IC50 (A-375 (melanoma); [4]) [µM] | IC50 (CEM; Homo sapiens, CCRF-CEM) [µM] | IC50 [1, 5] [µM] | IC50 (LN-229 (glioblastoma); [6]) [µM] | IC50 (HT-29 (colon carcinoma); [7]) [µM] | IC50 (H-146; [8]) [µM] | IC50 (Daoy) [µM] | IC50 (SK-MEL-2 (melanoma); cells incubated 72 h) [µM] | IC50 (MCF-7 (breast carcinoma); cells incubated 72 h) [µM] | IC50 (A-375 (melanoma); cells incubated 72 h) [µM] | IC50 (CEM) [µM] | IC50 ([1]; 120 h for the OVCAR cell lines) [µM] | IC50 (LN-229 (glioblastoma); cells incubated 72 h) [µM] | IC50 (HT-29 (colon carcinoma); cells incubated 72 h) [µM] | IC50 (H-146; cells incubated 72 h) [µM] | melting point [°C] |
| --- | --- | --- | --- | --- | --- | --- | --- | --- | --- | --- | --- | --- | --- | --- | --- | --- | --- | --- | --- |
| C=C(CO)[C@@H]1CC[C@]2(CO)CC[C@]3(C)[C@H](CC[C@@H]4[C@@]5(C)CCC(=O)C(C)(C)[C@@H]5CC[C@]43C)[C@@H]12 [Compound 7a] | > 75 | > 75 | 43 | 40 | 45 | 43 | > 75 | 44 | 60 | – | – | – | – | – | – | – | – | – | – |
| C=C(CO)[C@@H]1CC[C@]2(CO)CC[C@]3(C)[C@H](CC[C@@H]4[C@@]5(C)C=CC(=O)C(C)(C)[C@@H]5CC[C@]43C)[C@@H]12 [Compound 30] | > 75 | > 75 | > 75 | 61 | 16 | > 75 | 68 | 67 | 66 | – | – | – | – | – | – | – | – | – | – |
| C=C(C)[C@@H]1CC[C@]2(C(=O)O)CC[C@]3(C)[C@H](CC[C@@H]4[C@@]5(C)CC[C@H](O)C(C)(C)[C@@H]5CC[C@]43C)[C@@H]12 [Compound 1, betulinic acid (3β-hydroxy-lup-20(29)-en-28-oic acid), reference compound] | – | – | – | – | – | – | – | – | – | 11 | 7 | 30 | 22 | 2 | 40 | 29 | 31 | 8 | – |
| C=C(CO)[C@@H]1CC[C@]2(CO)CC[C@]3(C)[C@H](CC[C@@H]4[C@@]5(C)CCC(N)C(C)(C)[C@@H]5CC[C@]43C)[C@@H]12 (some centres unmarked) [Compound 24ab] | 31 | 34 | 15 | 6 | – | 14 | 17 | 17 | – | – | – | – | – | – | – | – | – | – | 189 to 199 |
| C=C(C=O)[C@@H]1CC[C@]2(COC3CCCCO3)CC[C@]3(C)[C@H](CC[C@@H]4[C@@]5(C)C=CC(=O)C(C)(C)[C@@H]5CC[C@]43C)[C@@H]12 (some centres unmarked) [Compound 34] | 6 | 2 | 8 | 1 | 1 | 2 | 6 | 2 | 2 | – | – | – | – | – | – | – | – | – | – |

From US20090062243A1, “Lupane-Type Triterpenoids Modified at 30-Position and Analogues Thereof” (ADVANCED LIFE SCIENCES, INC., priority 2007, published 2009)
